The source of these data is US9133492B2, “Kanamycin compound, kanamycin-producing Streptomyces species bacterium, and method of producing kanamycin” (iNtRON Biotechnology, Inc., priority 2010, dated 2015).

Test [1] has as its system E. coli ATCC 25922(Kan^S). In words: microbe, parasite or virus in culture. It is filed as cell-based, Escherichia coli. How it is done: (§1) In one embodiment of the present invention, antibacterial spectra against kanamycin intermediates and analogs produced by the present invention were measured. Typical gram-negative strains (E. coli and Pseudomonas aeruginosa) and four clinically isolated strains were employed to check the antibacterial spectra (See table 2).
(§2) To check the antibacterial spectra of kanamycin biosynthetic intermediates and their analogs, a total six kinds of Gram-negative bacteria such as kanamycin-sensitive (Kan^S) E. coli ATCC 25922, kanamycin-resistant (Kan^R) Pseudomonas aeruginosa ATCC 27853, Kan^S E. coli CCARM (Culture Collection of Antimicrobial Resistant Microbes, Korea) 1A020, Kan^R E. coli CCARM 1A023, amikacin-sensitive (Amk^S) P. aeruginosa CCARM 2206, and amikacin-resistance (Amk^R) P. aeruginosa CCARM 2178 were used.
(§3) Minimum inhibitory concentrations (MICs) of various kanamycin-related pseudodi- and tri-saccharides and AHBA conjugated kanamycin analogs (except for compounds 16, 18, 19, and 20) were measured by broth microdilution according to the Clinical and Laboratory Standard Institute (CLSI, formerly NCCLS). As described in Example 2, gram-negative E. coli strains, P. aeruginosa strains, and clinically isolated strains were incubated in Mueller-Hinton broth (BD Science) at 30° C. […] An aliquot of water was used as a negative control group. The growth of the strains was observed using the Labsystems Bioscreen C, and the minimum concentrations of the aminoglycoside diluted in the broth medium to inhibit the growth of the bacterial strains were measured.

Test [2] concerns P. aeruginosa ATCC 27853(Kan^R). In words: microbe, parasite or virus in culture. The format is cell-based. The following applies: Pseudomonas aeruginosa, ATCC27853. How it is done: as §1, §2, §3
Test [3] deals with E. coli CCARM 1A020(Kan^S). As to the kind of experiment: MIC by broth microdilution (CLSI), antibacterial spectra. The format is cell-based, Escherichia coli. The procedure:
as §1, §2, §3

For test [4], the system named is E. coli CCARM 1A023(Kan^R). The test is described as above. It is filed as cell-based, Escherichia coli. How it is done:
as §1, §2, §3

Test [5] relates to P. aeruginosa CCARM 2178(Amk^R). Described as above. It is filed as cell-based, Pseudomonas aeruginosa. The procedure:
as §1, §2, §3

In test [6] the test system is P. aeruginosa CCARM 2206(Amk^S). The description is as above. The format is cell-based, Pseudomonas aeruginosa. How it is done: as §1, §2, §3
Test [7] concerns Gram-negative bacteria (E. coli and Pseudomonas aeruginosa test strains). In words: Antibacterial spectra, comparison across test strains. The format is cell-based. To be noted: for antibacterial activity, 6′-amino vs 6′-hydroxy pseudodisaccharides: against kanamycin-sensitive E. coli strains, compared with 6′-hydroxy derivatives 3 and 9; for antibacterial activity, 3″-amino vs 3″-hydroxy derivatives: against the test strains, compared with corresponding 3″-hydroxy derivatives 5, 13, 14 and 11; for antibacterial activity, 6′-amino vs 6′-hydroxy pseudotrisaccharides: against kanamycin-sensitive test strains, compared with compounds 6 and 12. How it is done: as §1, §2, §3

Setting [8] is: Pseudomonas aeruginosa, CCARM2178.
Setting [9] is: Pseudomonas aeruginosa, CCARM2206.
[10] abbreviates: E. coli ATCC 25922, kanamycin-sensitive typical strain.
Setting [11] is: E. coli CCARM 1A020, kanamycin-sensitive clinically isolated strain.
Setting [12] is: E. coli CCARM 1A023, kanamycin-resistant clinically isolated strain.
Setting [13] is: P. aeruginosa CCARM 2178, amikacin-resistant clinically isolated strain.
Where [14] appears, read: P. aeruginosa CCARM 2206, amikacin-sensitive clinically isolated strain.

Values after ≈ are worked out from the molar mass of the structure shown. Where two headings read alike, the source gives them in different places. A value given as a limit tells only on which side of the number the result lay.

As for `N[C@H]1[C@@H](O[C@H]2[C@H](O)[C@@H](O)[C@H](N)C[C@@H]2N)O[C@H](CO)[C@@H](O)[C@@H]1O` [Compound 3, paromamine], the MIC is 128 µg/mL (≈ 396 µM) in test [1] (Escherichia coli, ATCC25922); above 128 µg/mL in test [2]; 128 µg/mL (≈ 396 µM) in test [3] (Escherichia coli); above 128 µg/mL in test [4] (Escherichia coli); above 128 µg/mL in test [5] (setting [8]); above 128 µg/mL in test [6] (setting [9]).
`NC[C@H]1O[C@H](O[C@H]2[C@H](O)[C@@H](O)[C@H](N)C[C@@H]2N)[C@H](N)[C@@H](O)[C@@H]1O` [Compound 4, neamine]: the MIC was 64 µg/mL (≈ 199 µM) in test [1] (Escherichia coli, ATCC25922); above 128 µg/mL in test [2]; 64 µg/mL (≈ 199 µM) in test [3] (Escherichia coli); above 128 µg/mL in test [4] (Escherichia coli); above 128 µg/mL in test [5] (setting [8]); 128 µg/mL (≈ 397 µM) in test [6] (setting [9]). Moreover, the “antibacterial activity, 6′-amino vs 6′-hydroxy pseudodisaccharides” value in test [7] is listed as “more active”.
As for `N[C@H]1[C@@H](O[C@H]2[C@H](O)[C@@H](O[C@H]3O[C@H](CO)[C@@H](O)[C@H](O)[C@H]3O)[C@H](N)C[C@@H]2N)O[C@H](CO)[C@@H](O)[C@@H]1O` [Compound 5, 3″-deamino-3″-hydroxykanamycin C], the MIC in test [1] (setting [10]) is 128 µg/mL (≈ 264 µM); in test [3] (setting [11]), “NA (NA represents no activity at 128 μg/mL)”; in test [4] (setting [12]), “NA (NA represents no activity at 128 μg/mL)”; in test [5] (setting [13]), “NA (NA represents no activity at 128 μg/mL)”; in test [6] (setting [14]) it was “NA (NA represents no activity at 128 μg/mL)”.
As for `N[C@@H]1[C@@H](O)[C@@H](O[C@@H]2[C@@H](O)[C@H](O[C@H]3O[C@H](CO)[C@@H](O)[C@H](O)[C@H]3N)[C@@H](N)C[C@H]2N)O[C@H](CO)[C@H]1O` [Compound 6, kanamycin C], the MIC in test [1] (setting [10]) was 16 µg/mL (≈ 33 µM); in test [3] (setting [11]), 16 µg/mL (≈ 33 µM); in test [4] (setting [12]), “NA (NA represents no activity at 128 μg/mL)”; in test [5] (setting [13]), “NA (NA represents no activity at 128 μg/mL)”; in test [6] (setting [14]), 64 µg/mL (≈ 132 µM). The “antibacterial activity, 3″-amino vs 3″-hydroxy derivatives” value in test [7] was “increased activity”.
`NC[C@H]1O[C@H](O[C@H]2[C@H](O)[C@@H](O[C@H]3O[C@H](CO)[C@@H](O)[C@H](N)[C@H]3O)[C@H](N)C[C@@H]2N)[C@H](N)[C@@H](O)[C@@H]1O` [Compound 7, kanamycin B, reference compound]: the MIC is 2 µg/mL (≈ 4.14 µM) in test [1] (setting [10]); 4 µg/mL (≈ 8.27 µM) in test [3] (setting [11]); “NA (NA represents no activity at 128 μg/mL)” in test [4] (setting [12]); “NA (NA represents no activity at 128 μg/mL)” in test [5] (setting [13]); 32 µg/mL (≈ 66.2 µM) in test [6] (setting [14]). In addition, the “antibacterial activity, 6′-amino vs 6′-hydroxy pseudotrisaccharides” value in test [7] was “more active”. Besides, the “antibacterial activity, 3″-amino vs 3″-hydroxy derivatives” value in test [7] is recorded as “increased activity”.
As to `NC[C@@H]1O[C@@H](O[C@H]2[C@H](O)[C@@H](O[C@H]3O[C@H](CO)[C@@H](O)[C@H](N)[C@H]3O)[C@H](N)C[C@@H]2N)[C@@H](O)[C@H](O)[C@H]1O` [Compound 8, kanamycin A, reference compound], the MIC was 2 µg/mL (≈ 4.13 µM) in test [1] (setting [10]); 4 µg/mL (≈ 8.26 µM) in test [3] (setting [11]); “NA (NA represents no activity at 128 μg/mL)” in test [4] (setting [12]); “NA (NA represents no activity at 128 μg/mL)” in test [5] (setting [13]); 16 µg/mL (≈ 33 µM) in test [6] (setting [14]). The “antibacterial activity, 6′-amino vs 6′-hydroxy pseudotrisaccharides” value in test [7] is “more active”. In addition, the “antibacterial activity, 3″-amino vs 3″-hydroxy derivatives” value in test [7] was “increased activity”.
Take `NC1CC(N)C(OC2OC(CO)C(O)C(O)C2O)C(O)C1O` (stereo not shown) [Compound 9, 2′-deamino-2′-hydroxyparomamine]: the MIC in test [3] (setting [11]) is 128 µg/mL (≈ 395 µM); in test [4] (setting [12]) it was “NA (NA represents no activity at 128 μg/mL)”; in test [5] (setting [13]), “NA (NA represents no activity at 128 μg/mL)”; in test [6] (setting [14]) it was “NA (NA represents no activity at 128 μg/mL)”.
Take `NCC1OC(OC2C(N)CC(N)C(O)C2O)C(O)C(O)C1O` (stereo not shown) [Compound 10, 2′-deamino-2′-hydroxyneamine]: the MIC was 64 µg/mL (≈ 198 µM) in test [1] (setting [10]); 64 µg/mL (≈ 198 µM) in test [3] (setting [11]); “NA (NA represents no activity at 128 μg/mL)” in test [4] (setting [12]); “NA (NA represents no activity at 128 μg/mL)” in test [5] (setting [13]); 128 µg/mL (≈ 396 µM) in test [6] (setting [14]). Besides, in test [7], the “antibacterial activity, 6′-amino vs 6′-hydroxy pseudodisaccharides” value was “more active”.
As to `N[C@@H]1C[C@H](N)[C@@H](O[C@H]2O[C@H](CO)[C@@H](O)[C@H](O)[C@H]2O)C(O)[C@H]1O[C@H]1O[C@H](CO)[C@@H](O)[C@H](O)[C@H]1O` (stereo partly shown) [Compound 11, 3″-deamino-3″-hydroxykanamycin X], the MIC result in test [3] (setting [11]), in test [4] (setting [12]), in test [5] (setting [13]) and in test [6] (setting [14]) was “NA (NA represents no activity at 128 μg/mL)” in each case.
As to `N[C@@H]1[C@@H](O)[C@@H](O[C@@H]2[C@@H](O)[C@H](O[C@H]3O[C@H](CO)[C@@H](O)[C@H](O)[C@H]3O)[C@@H](N)C[C@H]2N)O[C@H](CO)[C@H]1O` [Compound 12, kanamycin X], the MIC in test [1] (setting [10]) is 16 µg/mL (≈ 33 µM); in test [3] (setting [11]), 16 µg/mL (≈ 33 µM); in test [4] (setting [12]) it was “NA (NA represents no activity at 128 μg/mL)”; in test [5] (setting [13]), “NA (NA represents no activity at 128 μg/mL)”; in test [6] (setting [14]) it was 64 µg/mL (≈ 132 µM). For the same molecule, the “antibacterial activity, 3″-amino vs 3″-hydroxy derivatives” value in test [7] is “increased activity”.
As to `NC[C@H]1O[C@H](O[C@H]2[C@H](O)[C@@H](O[C@H]3O[C@H](CO)[C@@H](O)[C@H](O)[C@H]3O)[C@H](N)C[C@@H]2N)[C@H](N)[C@@H](O)[C@@H]1O` [Compound 13, 3″-deamino-3″-hydroxykanamycin B], the MIC in test [3] (setting [11]) was 128 µg/mL (≈ 264 µM); in test [4] (setting [12]), “NA (NA represents no activity at 128 μg/mL)”; in test [5] (setting [13]) it was “NA (NA represents no activity at 128 μg/mL)”; in test [6] (setting [14]) it was “NA (NA represents no activity at 128 μg/mL)”.
Consider `NCC[C@H](O)C(=O)N[C@@H]1C[C@H](N)[C@@H](O[C@H]2O[C@H](CN)[C@@H](O)[C@H](O)[C@H]2O)[C@H](O)[C@H]1O[C@H]1O[C@H](CO)[C@@H](O)[C@H](N)[C@H]1O` [Compound 15, amikacin, reference compound], for which the MIC is 128 µg/mL (≈ 219 µM) in test [1] (Escherichia coli, ATCC25922); 64 µg/mL (≈ 109 µM) in test [2]; 128 µg/mL (≈ 219 µM) in test [3] (Escherichia coli); 32 µg/mL (≈ 54.6 µM) in test [4] (Escherichia coli, E. coli CCARM 1A023, kanamycin-resistant clinically isolated strain, read-out: MIC); above 128 µg/mL in test [5] (Pseudomonas aeruginosa, CCARM2178, P. aeruginosa CCARM 2178, amikacin-resistant clinically isolated strain, read-out: MIC); at most 0.25 µg/mL in test [6] (Pseudomonas aeruginosa, CCARM2206, P. aeruginosa CCARM 2206, amikacin-sensitive clinically isolated strain, read-out: MIC). Besides, in test [5] (clinically isolated amikacin-resistant P. aeruginosa strain), the “MIC / activity” value was “no activity”.
With kanamycin D [Compound 14], the MIC in test [3] (setting [11]) is 128 µg/mL; in test [4] (setting [12]), “NA (NA represents no activity at 128 μg/mL)”; in test [5] (setting [13]), “NA (NA represents no activity at 128 μg/mL)”; in test [6] (setting [14]), “NA (NA represents no activity at 128 μg/mL)”.
